This is an account of results in publication PMC1892040 (PLoS Medicine, 2007).

The structures appear in SMILES notation. Where two headings read alike, the source gives them in different places.

The test system of data set [1] is myeloma cell line SP2/0. Put plainly: Cytotoxicity assay (sulforhodamine B). In kind it is cell-based. Particulars: for 5 d. The method, then: Cytotoxicity assays were performed using sulforhodamine B to determine cellular protein content as described. Briefly, myeloma cell line SP2/0 was cultured in 96-well microtiter plates containing 0.2 ml of RPMI-1640 per well at a cell density of 1,000 per well at 37 °C in 5% CO2. Cells were treated with drug concentrations (or drug carrier alone) and exposure times as indicated. After treatment, cells were fixed with 10% TCA at 4 °C for 1 h. Fixed cells were rinsed to remove fixative and then stained in 0.4% (w/v) sulforhodamine B (Sigma) in 1% acetic acid for 30 min. After washing with 1% acetic acid and dye extraction in 10 mM Tris (pH 10.5), plates were read at A564nm. The A564nm of drug-treated cells was compared to carrier-only-treated cells. The treatments were done in triplicate and the experiments repeated three times.

Data set [2] addresses T1, S. mansoni TGR (Schistosoma mansoni, UniProt Q962Y6).
T1 sequence (Q962Y6 1-598): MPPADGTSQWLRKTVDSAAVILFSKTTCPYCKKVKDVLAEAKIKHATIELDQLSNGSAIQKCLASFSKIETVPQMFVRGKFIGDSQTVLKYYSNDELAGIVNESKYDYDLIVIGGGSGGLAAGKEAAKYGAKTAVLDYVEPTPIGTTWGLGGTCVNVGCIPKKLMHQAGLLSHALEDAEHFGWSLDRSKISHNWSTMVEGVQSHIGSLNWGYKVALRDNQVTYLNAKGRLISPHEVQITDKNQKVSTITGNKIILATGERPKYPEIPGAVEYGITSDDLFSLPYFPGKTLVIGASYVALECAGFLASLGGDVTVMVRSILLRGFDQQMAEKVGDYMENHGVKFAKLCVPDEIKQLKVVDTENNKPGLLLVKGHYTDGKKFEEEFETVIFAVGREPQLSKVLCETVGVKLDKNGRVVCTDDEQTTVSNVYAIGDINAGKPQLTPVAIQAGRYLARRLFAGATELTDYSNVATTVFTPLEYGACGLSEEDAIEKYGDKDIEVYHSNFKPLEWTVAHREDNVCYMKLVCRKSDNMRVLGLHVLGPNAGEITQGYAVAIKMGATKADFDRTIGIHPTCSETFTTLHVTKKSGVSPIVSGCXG
Protocol: (§1) Assays were performed at 25 °C in 0.1 M potassium phosphate (pH 7.4), 10 mM EDTA using 100 μM NADPH unless otherwise stated.
(§2) Initial inhibitor screens were conducted in 200 μl volumes in 96 well plates with 50 μM inhibitor, 100 μM NADPH, and 5 nM TGR in 0.1 M potassium phosphate (pH 7.4), 10 mM EDTA with a preincubation step of 15 min. […] All assays were done in triplicate.

For data set [3], the target named is T1, S. mansoni TGR. Put plainly: IC50, Grx activity of TGR (HED assay), 15 min preincubation. The arrangement: The entire TGR ORF plus the SECIS element was subcloned into pET-24a; made in house; host or cells: Escherichia coli BL21(DE3) with pSUABC. It counts as biochemical. Particulars: 8 mM HED plus 1 mM GSH, 15 min preincubation with 100 μM NADPH.
Protocol: as §1, §2
Data set [4] addresses T1, S. mansoni TGR. In kind it is biochemical. The arrangement: The entire TGR ORF plus the SECIS element was subcloned into pET-24a; made in house; host or cells: Escherichia coli BL21(DE3) with pSUABC. Particulars: read-out: IC50 S. mansoni TGR, DTNB (TrxR activity); 3 mM DTNB, 15 min preincubation with 100 μM NADPH.
Protocol: as §1, §2
For data set [5], the system named is mammalian cells. The arrangement: method as in PMID 14561156. The note with it: cultured in 10 μM AF; cited from earlier work.
Data set [6] relates to GSH:GSSG ratio. Put plainly: GSH:GSSG ratio in treated worms. It counts as cell-based, Schistosoma mansoni. The note with it: after 6 h of treatment with 10 μM AF. The method, then: AF was dissolved in DMSO and added to freshly perfused worms in DMEM to 10 μM. Control worms were treated with equal amounts of carrier. Worms were subsequently observed for unpairing, motility, and mortality, and were collected at the indicated time intervals for analysis. Worms were homogenized by sonication in PBS and homogenates were assayed for TrxR and GR activities as described above. […] Each assay was done in triplicate and each experiment was done three times.

In data set [7] the target is T2, Human TrxR (Homo sapiens, UniProt Q16881).
T2 sequence (Q16881 1-499 isoform Q16881-5): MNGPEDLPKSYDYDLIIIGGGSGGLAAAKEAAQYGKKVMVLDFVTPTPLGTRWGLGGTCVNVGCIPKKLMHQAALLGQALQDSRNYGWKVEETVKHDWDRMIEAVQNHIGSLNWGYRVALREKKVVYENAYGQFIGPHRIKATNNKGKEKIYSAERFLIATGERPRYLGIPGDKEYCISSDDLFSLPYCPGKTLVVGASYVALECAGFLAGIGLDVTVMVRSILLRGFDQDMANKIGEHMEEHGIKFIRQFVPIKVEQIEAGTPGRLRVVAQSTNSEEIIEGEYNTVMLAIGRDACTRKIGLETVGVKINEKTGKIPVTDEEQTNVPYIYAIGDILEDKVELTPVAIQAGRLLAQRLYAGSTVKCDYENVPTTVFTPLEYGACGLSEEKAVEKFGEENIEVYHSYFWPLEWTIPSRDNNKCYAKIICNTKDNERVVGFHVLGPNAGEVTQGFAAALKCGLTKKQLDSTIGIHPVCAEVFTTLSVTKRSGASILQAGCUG
The note with it: read-out: IC50 Human TrxR, DTNB/Trx; cited from earlier work.

Regarding `CC(=O)OC[C@H]1O[C@@H]([S-])[C@H](OC(C)=O)[C@@H](OC(C)=O)[C@@H]1OC(C)=O.CCP(CC)CC.[Au+]` [AF, auranofin], in data set [1], the “Concentration tolerated by mammalian cell line” value was found to be 100 µM. In data set [2], this compound returned an activity of 0%. For the same compound, the IC50 in data set [3] was 6 nM; in data set [4], 7 nM; in data set [7], 20 nM. Further, the “Viability of mammalian cells” value in data set [5] is “over 95%”. In addition, the “Decrease of GSH:GSSG ratio” value in data set [6] turned out to be 85%.
